Results as given in patent publication US20230265151A1, “GIP/GLP1 CO-AGONIST COMPOUNDS” (priority 2020, published 2023).
Where two headings read alike, the source gives them in different places. *1 amine or outer side, *2 acyl side, *3 side chain or, on linkers, in order; H or OH if unused. Where a SMILES comes first, the peptide text is derived from it. Side-chain parts run from the residue outwards. [ ]: non-standard residue; d: D form. The star is where a group is joined. Decanoyl(10-(4-HOOC-PhO)) = O=C(O)c1ccc(OCCCCCCCCCC(=O)*)cc1; αMePhe(2-F) = C[C@](N)(Cc1ccccc1F)C(=O)O; γGlu = O=C(O)[C@H](CCC(=O)[*:2])N[*:1]; αMeY = C[C@](N)(Cc1ccc(O)cc1)C(=O)O; 4Pal = N[C@@H](Cc1ccncc1)C(=O)O; αMeL = CC(C)C[C@](C)(N)C(=O)O; Orn = NCCC[C@H](N)C(=O)O; AEEA = NCCOCCOCC(=O)O; Aib = CC(C)(N)C(=O)O

Tests used:
Type in all cases: cell-based
hGIPR = target: T1, hGIPR (Homo sapiens, UniProt P48546); assay: Functional cAMP formation (HTRF) in HEK-293 clonal cells expressing hGIPR, 0.1% bovine casein, without or with 1.0% human serum albumin; conditions: for EC50: geometric mean
T1 construct: expressed in transfected cells
T1 sequence (P48546 22-466): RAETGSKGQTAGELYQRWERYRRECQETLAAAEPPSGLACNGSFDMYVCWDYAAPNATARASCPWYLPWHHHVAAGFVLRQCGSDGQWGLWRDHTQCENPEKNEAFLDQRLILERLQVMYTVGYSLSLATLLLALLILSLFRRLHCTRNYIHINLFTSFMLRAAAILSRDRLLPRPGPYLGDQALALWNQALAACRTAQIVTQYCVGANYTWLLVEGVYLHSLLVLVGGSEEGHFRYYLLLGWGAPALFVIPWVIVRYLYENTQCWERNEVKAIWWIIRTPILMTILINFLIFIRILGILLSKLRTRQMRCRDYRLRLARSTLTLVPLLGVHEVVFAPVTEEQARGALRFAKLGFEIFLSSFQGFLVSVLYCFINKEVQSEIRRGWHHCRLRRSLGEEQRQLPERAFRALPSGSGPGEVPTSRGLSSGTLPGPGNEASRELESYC
Procedure, shortened: (§1)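 Cells were stimulated with peptide for 30 min at 37° C, then lysed in buffer carrying cAMP-d2 and anti-cAMP Eu3+-cryptate for a competitive HTRF read after at least 60 min at room temperature. The 665/620 nm ratio was converted to nM cAMP against a standard curve.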

hGCGR = target: T2, hGCGR (Homo sapiens, UniProt P47871); assay: Functional cAMP formation (HTRF) in HEK-293 clonal cells expressing hGCGR, 0.1% bovine casein, without or with 1.0% human serum albumin; conditions: geometric mean
T2 construct: expressed in transfected cells
T2 sequence (P47871 26-477): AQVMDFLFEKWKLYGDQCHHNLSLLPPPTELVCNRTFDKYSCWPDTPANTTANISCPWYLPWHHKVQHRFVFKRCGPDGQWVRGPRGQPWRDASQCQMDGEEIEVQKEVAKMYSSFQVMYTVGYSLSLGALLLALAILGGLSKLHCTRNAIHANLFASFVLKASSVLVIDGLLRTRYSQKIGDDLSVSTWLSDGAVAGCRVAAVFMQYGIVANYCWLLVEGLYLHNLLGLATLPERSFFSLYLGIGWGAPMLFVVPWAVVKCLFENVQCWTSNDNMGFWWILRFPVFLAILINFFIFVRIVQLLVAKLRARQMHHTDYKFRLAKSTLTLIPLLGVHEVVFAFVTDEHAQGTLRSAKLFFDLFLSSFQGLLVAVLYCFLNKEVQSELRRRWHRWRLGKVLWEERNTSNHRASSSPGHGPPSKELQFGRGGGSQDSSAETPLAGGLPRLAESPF
Procedure, shortened: as §1

hGLP-1R = hGLP-1R (Homo sapiens, UniProt P43220); assay: Functional cAMP formation (HTRF) in HEK-293 clonal cells expressing hGLP-1R, 0.1% bovine casein, without or with 1.0% human serum albumin; set-up: expressed in transfected cells; conditions: for EC50: geometric mean
Chain of hGLP-1R (P43220 24-463): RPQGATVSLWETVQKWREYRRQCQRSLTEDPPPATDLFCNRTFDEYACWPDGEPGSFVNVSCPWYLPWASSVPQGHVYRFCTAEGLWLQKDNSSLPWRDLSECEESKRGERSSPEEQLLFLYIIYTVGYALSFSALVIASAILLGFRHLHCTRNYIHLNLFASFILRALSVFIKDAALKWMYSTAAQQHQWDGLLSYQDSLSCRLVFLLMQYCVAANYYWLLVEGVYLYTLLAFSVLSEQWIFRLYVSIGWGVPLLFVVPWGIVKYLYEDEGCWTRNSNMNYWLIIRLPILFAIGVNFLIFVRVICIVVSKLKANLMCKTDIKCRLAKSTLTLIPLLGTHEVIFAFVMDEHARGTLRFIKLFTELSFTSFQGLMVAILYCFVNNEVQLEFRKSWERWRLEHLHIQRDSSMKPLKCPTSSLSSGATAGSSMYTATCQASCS
Procedure, shortened: as §1

SMILES | EC50 (hGIPR; 0.1% bovine casein and 1.0% human serum albumin, 37° C., read-out: hGIPR EC50, nM (SEM, n)) [nM] | Emax (hGIPR; HEK293, 0.1% bovine casein and 1.0% human serum albumin, 37° C., percent of maximal response to GIP(1-42)NH2, read-out: hGIPR Emax, % ± SEM) [%] | Emax (hGIPR; HEK293, percent of maximal response to GIP(1-42)NH2, 37° C., 0.1% bovine casein, arithmetic mean, read-out: hGIPR Emax, % ± SEM) [%] | EC50 (hGIPR; cAMP, incubated at 37° C., 0.1% bovine casein (no human serum albumin), read-out: hGIPR EC50, nM (SEM, n)) [nM] | EC50 (hGCGR; 0.1% bovine casein and 1.0% human serum albumin, 37° C., read-out: hGCGR EC50, nM (SEM, n)) [nM] | EC50 (hGCGR; cAMP, incubated at 37° C., 0.1% bovine casein (no human serum albumin), read-out: hGCGR EC50, nM (SEM, n)) [nM] | EC50 (hGLP-1R; 0.1% bovine casein and 1.0% human serum albumin, 37° C., read-out: hGLP-1R EC50, nM (SEM, n)) [nM] | EC50 (hGLP-1R; cAMP, incubated at 37° C., 0.1% bovine casein (no human serum albumin), read-out: hGLP-1R EC50, nM (SEM, n)) [nM] | Emax (hGIPR; HEK293, read-out: hGIPR Emax, % ± SEM, 0.1% bovine casein and 1.0% human serum albumin, 37° C., percent of maximal response to GIP(1-42)NH2) [%] | EC50 (hGIPR; hGIPR EC50, nM (SEM, n), cAMP, incubated at 37° C., 0.1% bovine casein (no human serum albumin)) [nM] | EC50 (hGCGR; hGCGR EC50, nM (SEM, n), 0.1% bovine casein and 1.0% human serum albumin, 37° C.) [nM] | EC50 (hGCGR; hGCGR EC50, nM (SEM, n), cAMP, incubated at 37° C., 0.1% bovine casein (no human serum albumin)) [nM] | Emax (hGLP-1R; HEK293, read-out: hGLP-1R Emax, % ± SEM, percent of maximal response to GLP-1(7-36)NH2, 37° C., 0.1% bovine casein, arithmetic mean) [%] | EC50 (hGLP-1R; hGLP-1R EC50, nM (SEM, n), 0.1% bovine casein and 1.0% human serum albumin, 37° C.) [nM] | EC50 (hGLP-1R; hGLP-1R EC50, nM (SEM, n), cAMP, incubated at 37° C., 0.1% bovine casein (no human serum albumin)) [nM]
CC[C@H](C)[C@H](NC(=O)[C@H](CCCN)NC(=O)[C@H](CC(=O)O)NC(=O)[C@H](CC(C)C)NC(=O)[C@](C)(CC(C)C)NC(=O)[C@@H](NC(=O)[C@H](CO)NC(=O)[C@H](Cc1ccncc1)NC(=O)[C@H](CC(=O)O)NC(=O)[C@H](CO)NC(=O)[C@@H](NC(=O)[C@](C)(Cc1ccccc1F)NC(=O)[C@@H](NC(=O)CNC(=O)[C@H](CCC(=O)O)NC(=O)C(C)(C)NC(=O)[C@@H](N)Cc1ccc(O)cc1)[C@@H](C)O)[C@@H](C)O)[C@@H](C)CC)C(=O)N[C@@H](C)C(=O)N[C@@H](CCC(N)=O)C(=O)NC(C)(C)C(=O)N[C@@H](CCCCNC(=O)COCCOCCNC(=O)COCCOCCNC(=O)CC[C@H](NC(=O)CCCCCCCCCCCCC(=O)O)C(=O)O)C(=O)N[C@@H](Cc1ccccc1)C(=O)N[C@H](C(=O)N[C@H](CCC(=O)O)C(=O)N[C@@](C)(Cc1ccc(O)cc1)C(=O)N[C@@H](CC(C)C)C(=O)N[C@H](C(=O)N[C@@H](CCC(=O)O)C(=O)NCC(=O)NCC(=O)N[C@@H](CCCCNC(=O)COCCOCCNC(=O)COCCOCCNC(=O)CC[C@H](NC(=O)CCCCCCCCCCCCC(=O)O)C(=O)O)C(=O)N[C@@H](CO)C(=O)N[C@@H](CO)C(=O)NCC(=O)N[C@@H](C)C(=O)N1CCC[C@H]1C(=O)N1CCC[C@H]1C(=O)N1CCC[C@H]1C(=O)N[C@@H](CO)C(N)=O)[C@@H](C)CC)[C@@H](C)CC [Example 74] | 2.19 | 86.7 | 93.3 ± 2.89 | 0.0156 | > 9950 | > 9950 | 59.5 | 0.334 |  |  |  |  |  |  | 
CC[C@H](C)[C@H](NC(=O)[C@H](CCCN)NC(=O)[C@H](CC(=O)O)NC(=O)[C@H](CC(C)C)NC(=O)[C@](C)(CC(C)C)NC(=O)[C@@H](NC(=O)C(C)(C)NC(=O)[C@H](Cc1ccncc1)NC(=O)[C@H](CC(=O)O)NC(=O)[C@H](CO)NC(=O)[C@@H](NC(=O)[C@](C)(Cc1ccccc1F)NC(=O)[C@@H](NC(=O)CNC(=O)[C@H](CCC(=O)O)NC(=O)C(C)(C)NC(=O)[C@@H](N)Cc1ccc(O)cc1)[C@@H](C)O)[C@@H](C)O)[C@@H](C)CC)C(=O)N[C@@H](C)C(=O)N[C@@H](CCC(N)=O)C(=O)NC(C)(C)C(=O)N[C@@H](CCCCNC(=O)COCCOCCNC(=O)COCCOCCNC(=O)CC[C@H](NC(=O)CCCCCCCCCOc1ccc(C(=O)O)cc1)C(=O)O)C(=O)N[C@@H](Cc1ccccc1)C(=O)N[C@H](C(=O)N[C@H](CCC(=O)O)C(=O)N[C@@](C)(Cc1ccc(O)cc1)C(=O)N[C@@H](CC(C)C)C(=O)N[C@H](C(=O)N[C@@H](CCC(=O)O)C(=O)NCC(=O)NCC(=O)N1CCC[C@H]1C(=O)N[C@@H](CO)C(=O)N[C@@H](CO)C(=O)NCC(=O)N[C@@H](C)C(=O)N1CCC[C@H]1C(=O)N1CCC[C@H]1C(=O)N1CCC[C@H]1C(=O)N[C@@H](CO)C(=O)N[C@@H](CCCCNC(=O)COCCOCCNC(=O)COCCOCCNC(=O)CC[C@H](NC(=O)CCCCCCCCCOc1ccc(C(=O)O)cc1)C(=O)O)C(N)=O)[C@@H](C)CC)[C@@H](C)CC [Example 248] (H-Y[Aib]EGT[αMePhe(2-F)]TSD[4Pal][Aib]I[αMeL]LD[Orn]IAQ[Aib]K([AEEA-AEEA-γGlu-Decanoyl(10-(4-HOOC-PhO))])FI[dE][αMeY]LIEGGPSSGAPPPSK([AEEA-AEEA-γGlu-Decanoyl(10-(4-HOOC-PhO))])-NH2; N-terminus assumed) |  |  |  |  |  |  |  |  | 91.8 | 0.0176 | > 9950 | > 9950 | 89.1 | 56.7 | 0.537
